From patent publication US7626027B2, “Substituted 1H-pyrrolo[2,3-c]pyridine-2-carboxamides and related analogs as inhibitors of casein kinase Iε” (Aventis Pharmaceuticals Inc, priority 2003, dated 2009)
Like-named read-outs stand apart in the source and are kept apart here.

Experiments:
[1] = tested on: Mper1-luc Rat-1 fibroblasts (P2C4); assay: Cellular Circadian Assay (Mper1-luc reporter period lengthening); format: cell-based; conditions: effective micromolar concentration that induced a 1 hour lengthening of circadian period
Description: The assay consists of Rat-1 fibroblasts stably expressing an Mper1-luc construct, thus enabling the determination of the rhythmic activation of the Mper1 promoter in living cells by repeatedly estimating luciferase activity by monitoring light-output over several days. The repeated measure format of the assay permits accurate and reproducible assessment of the concentration-dependent effects of CKIε inhibitors on circadian rhythm and provides the nexus for relating CKIε inhibition to circadian period alteration.
Cellular Circadian Assay Experimental Procedures
Stable transfection: Rat-1 fibroblast cultures at 30-50% confluence were co-transfected with vectors containing the Zeocin resistance selectable marker for stable transfection and an mPer-1 promoter-driven luciferase reporter gene. After 24-48 hours, cultures were split onto 96 well plates and maintained in growth media supplemented with 50-100 μg/mL Zeocin (Invitrogen #45-0430) for 10-14 days. Zeocin-resistant stable transfectants were assessed for reporter expression by supplementing growth media with 100 μM luciferin (Promega #E1603) and assaying luciferase activity on a TopCount scintillation counter (Packard Model #C384V00). […] Mper1-luc Rat-1 fibroblasts clone P2C4 was selected for compound testing. […] After synchronization, cultures were rinsed with 100 μL EMEM (Celigro #10-010-CV) for 10 minutes at room temperature. […] Compounds tested for circadian effects were added to CO2-independent media in 0.3% DMSO (final concentration). […] In Vivo luciferase activity was estimated by measuring relative light output on a TopCount scintillation counter (Packard Model #C384V00). Plates were transferred from incubator to reader using an ORCA robotic arm (Beckman Instruments) and SAMI-NT automated scheduling software (Version 3.3; SAGIAN/Beckman Instruments). Data Analysis: Microsoft Excel and XLfit (Version 2.0.9; IDBS) were used to import, manipulate and graph data. Period analysis was performed either by determining the interval between relative light output minima over several days or by Fourier Transform. […] Potency is reported as EC≡t+1h, which is presented as the effective micromolar concentration that induced a 1 hour lengthening of period. The data was analyzed by fitting a hyperbolic curve to the data expressed as period change (y-axis) versus the concentration of test compound (x-axis) in XLfit and the EC[…]t+1h was interpolated from this curve.

casein kinase 1ε = molecular target: T1, casein kinase 1ε (Homo sapiens, UniProt P49674); assay: Casein Kinase Epsilon 33P-ATP Filter Plate Assay; format: biochemical
T1 construct: made in house
Description: Casein Kinase Epsilon ^33P-ATP Filter Plate Assay for Screening CK1 Inhibitors Purpose: This assay measures the effect of compounds to inhibit the phosphorylation of the substrate casein by the enzyme casein kinase 1ε using an in vitro ^33P-ATP filtration assay.
Equipment: • Beckman Biomek 2000 Liquid Handling Robot • Beckman Multimek 96 Automated 96 Channel Pipettor • Millipore Vacuum Manifold Basic Kit # MAVM0960R • Titertek Multidrop Liquid Dispenser • Packard TopCount NXT Liquid Scintillation Counter
Enzyme: • Casein Kinase 1ε final concentration 0.58 mg/ml obtained from fermentation and purification processes performed by Aventis Pharmaceuticals Inc., France. The above are stored as 100 μL aliquots at minus 80° C.
Compounds: • Compounds for testing are supplied as frozen 10 mM compound stock dissolved in 100% DMSO. Assay Conditions:
Final total assay volume per well is equal to 50 μL made up as follows: • 5 μL of diluted compound stock ([…], 0.1, 0.01 or 0.001 μM), • 5 μL of dephosphorylated casein final concentration 0.2 μg/μL, • 20 μL of CK1ε final concentration 3 ng/μL, and • 20 μL of γ-^33P-ATP final concentration 0.02 μCi/μL mixed with cold ATP (10 μM final). Methodology: • 1. 500 mL of fresh assay buffer is made: 50 mM Tris pH 7.5, 10 mM MgCl2, 2 mM DTT and 1 mM EGTA • 2. Compounds to be evaluated are obtained as 10 μL of 10 mM stock dissolved in 100% DMSO. Using a Biomek 2000 liquid handling robot, serial dilutions are made to yield 10, 1, 0.1, 0.01 and 0.001 μM final compound dilutions added as 5 μL additions to Falcon U bottom plates. […] A routine screening assay will consist of 32 compounds, which equals 4 assay plates. • 3. Assay plate maps are set up according to the following pattern
• 4. […] Finally 20 μL […] (0.02 μCi/μL)/10 μM cold ATP are added (equals approximately 2×10^6 CPM per well). • 6. The Falcon U-Bottom assay plate containing the above 50 μL reaction volume is vortexed and then incubated at room temperature for 2 hours. • 7. At the end of 2 hours, the reaction is stopped by the addition of 65 μL of ice cold 2 mM cold ATP (made up in assay buffer) to the assay plates using a Beckman Multimek • 8. At the same time 25 μL 100% ice cold TCA made up in distilled H2O is added to a matching number of Millipore MAPH filter plates. • 9. Using a handheld 8-channel pipettor, 100 μL of the reaction mixture is transferred from the Falcon U-Bottom Plate to the Millipore MAPH filter plates presoaked with TCA. • 10. The Millipore MAPH filter plates are mixed gently and allowed to sit at room temperature for at least 30 minutes to precipitate the proteins. • 11. After 30 minutes the filter plates are placed on a Millipore vacuum manifold and filtered at no more than 8 mm Hg as the MAPH filters tend to “air lock” at higher vacuum settings. • 12. The filter plates are sequentially washed and filtered with 2×150 μL 20% TCA, 2×150 μL 10% TCA and 2×150 μL 5% TCA (total of 6 washes per plate/900 μL per well). • 13. Plates are allowed to dry overnight at room temperature. The next day 40 μL Packard Microscint-20 Scintillation Fluid is added per well using a Titertek Multidrop dispenser; the plates are sealed and counted for 2 minutes/well in a Packard Topcount NXT Scintillation Counter (CPM values/well are captured). Calculation: • 1. Counts Per Minute (CPM) data is captured and imported into a proprietary data calculation and archiving database (Activity Base by IDBS version 5.0). • 2. Column 1 for each plate reflects total phosphorylation activity of the enzyme in the absence of any inhibiting compound and thus represents 100%. Column 12 reflects any nonspecific phosphorylation/retained radioactivity activity in the absence of inhibiting compound and enzyme.

T1 sequence (P49674 whole entry): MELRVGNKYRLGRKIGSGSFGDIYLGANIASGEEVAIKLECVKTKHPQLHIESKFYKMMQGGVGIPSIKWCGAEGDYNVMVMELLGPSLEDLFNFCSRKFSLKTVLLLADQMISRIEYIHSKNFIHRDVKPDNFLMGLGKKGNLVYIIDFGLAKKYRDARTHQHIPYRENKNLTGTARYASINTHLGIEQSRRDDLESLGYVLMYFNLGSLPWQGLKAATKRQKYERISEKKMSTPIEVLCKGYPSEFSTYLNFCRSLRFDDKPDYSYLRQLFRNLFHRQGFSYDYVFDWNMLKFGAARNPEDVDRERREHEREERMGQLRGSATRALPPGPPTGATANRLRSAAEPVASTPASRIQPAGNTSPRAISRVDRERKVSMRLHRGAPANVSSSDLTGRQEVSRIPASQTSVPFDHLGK

With NC(=O)c1[nH]c2cccnc2c1Sc1ccccc1F [Ia-8, 3-(2-Fluorophenylsulfanyl)-1H-pyrrolo[3,2-b]pyridine-2-carboxylic acid amide] the “Cell Assay ECΔτ+1h” value [1] was 0.75 µM and the IC50 (casein kinase 1ε) was 531 nM.
With NC(=O)c1[nH]c2cccnc2c1Sc1ccccc1C(F)(F)F [Ia-10, 3-(2-Trifluormethylphenylsulfanyl)-1H-pyrrolo[3,2-b]pyridine-2-carboxylic acid amide] the “Cell Assay ECΔτ+1h” value [1] was 2.94 µM and the IC50 (casein kinase 1ε; phosphorylation of casein, 10 μM cold ATP, 2 hours room temperature, * denotes average of 2 or more determinations, read-out: Casein Kinase Iε 33P-ATP Filter Plate Assay IC50) was 2890 nM.
For NC(=O)c1[nH]c2cccnc2c1Sc1ccccc1Cl [Ia-5, 3-(2-Chlorophenylsulfanyl)-1H-pyrrolo[3,2-b]pyridine-2-carboxylic acid amide], the “Cell Assay ECΔτ+1h” value [1] was 1.13 µM and the IC50 (casein kinase 1ε) was 6530 nM.
For NC(=O)c1[nH]c2cccnc2c1Sc1ccccc1N [Ia-12, 3-(2-Aminophenylsulfanyl)-1H-pyrrolo[3,2-b]pyridine-2-carboxylic acid amide], the “Cell Assay ECΔτ+1h” value [1] was 0.44 µM and the IC50 (casein kinase 1ε) was 36 nM.
Compound NC(=O)c1[nH]c2cccnc2c1Sc1ccc(Cl)cc1Cl [Ia-7, 3-(2,4-Dichlorophenylsulfanyl)-1H-pyrrolo[3,2-b]pyridine-2-carboxylic acid amide] has a melting point of 266 °C and an IC50 (casein kinase 1ε) greater than 10000 nM.
For NC(=O)c1[nH]c2cccnc2c1Sc1ccc(Cl)cc1 [Ia-6, 3-(4-Chlorophenylsulfanyl)-1H-pyrrolo[3,2-b]pyridine-2-carboxylic acid amide], the “Cell Assay ECΔτ+1h” value [1] was 13.8 µM, the melting point was 266 °C and the IC50 (casein kinase 1ε) was 491 nM.
With NC(=O)c1[nH]c2cccnc2c1Sc1cccc([N+](=O)[O-])c1 [Ia-18, 3-(3-Nitro-phenylsulfanyl)-1H-pyrrolo[3,2-b]pyridine-2-carboxylic acid amide] the “Cell Assay ECΔτ+1h” value [1] was greater than 10 µM and the IC50 (casein kinase 1ε) was 186 nM.
In the case of Cc1cccc(Sc2c(C(N)=O)[nH]c3cccnc23)c1 [Ia-22, 3-m-Tolylsulfanyl-1H-pyrrolo[3,2-b]pyridine-2-carboxylic acid amide], the “Cell Assay ECΔτ+1h” value [1] is reported as greater than 10 µM and the IC50 (casein kinase 1ε) is reported as 73 nM.
With Cc1ccc(Sc2c(C(N)=O)[nH]c3cccnc23)cc1 [Ia-20, 3-p-Tolylsulfanyl-1H-pyrrolo[3,2-b]pyridine-2-carboxylic acid amide] the “Cell Assay ECΔτ+1h” value [1] was greater than 10 µM and the IC50 (casein kinase 1ε) was 261 nM.
In the case of NC(=O)c1[nH]c2cccnc2c1Sc1ccccc1 [Ia-1, 3-Phenylsulfanyl-1H-pyrrolo[3,2-b]pyridine-2-carboxylic acid amide], the “Cell Assay ECΔτ+1h” value [1] is reported as 0.27 µM, the melting point is reported as 251 °C and the IC50 (casein kinase 1ε) is reported as 36 nM.
In the case of NC(=O)c1[nH]c2cccnc2c1Sc1cccc2cccnc12 [Ia-25, 3-(Quinolin-8-ylsulfanyl)-1H-pyrrolo[3,2-b]pyridine-2-carboxylic acid amide], the “Cell Assay ECΔτ+1h” value [1] is reported as 2.26 µM and the IC50 (casein kinase 1ε) is reported as 1550 nM.
In the case of NC(=O)c1[nH]c2cccnc2c1Sc1cccc(Br)c1 [Ia-4, 3-(3-Bromophenylsulfanyl)-1H-pyrrolo[3,2-b]pyridine-2-carboxylic acid amide], the “Cell Assay ECΔτ+1h” value [1] is reported as 0.12 µM and the IC50 (casein kinase 1ε) is reported as 25 nM.
With NC(=O)c1[nH]c2cccnc2c1Sc1cccc(F)c1 [Ia-2, 3-(3-Fluorophenylsulfanyl)-1H-pyrrolo[3,2-b]pyridine-2-carboxylic acid amide] the “Cell Assay ECΔτ+1h” value [1] was 0.51 µM, the melting point was 235 to 237 °C and the IC50 (casein kinase 1ε) was 74 nM.
In the case of COc1cccc(Sc2c(C(N)=O)[nH]c3cccnc23)c1 [Ia-15, 3-(3-Methoxy-phenylsulfanyl)-1H-pyrrolo[3,2-b]pyridine-2-carboxylic acid amide], the “Cell Assay ECΔτ+1h” value [1] is reported as 1.1 µM and the IC50 (casein kinase 1ε) is reported as 109 nM.
With NC(=O)c1[nH]c2cccnc2c1Sc1cccc(Cl)c1 [Ia-3, 3-(3-Chlorophenylsulfanyl)-1H-pyrrolo[3,2-b]pyridine-2-carboxylic acid amide] the “Cell Assay ECΔτ+1h” value [1] was 0.31 µM, the melting point was 246.5 to 248 °C and the IC50 (casein kinase 1ε) was 26 nM.
